From ChEMBL document CHEMBL1201862, “PubChem BioAssay data set” (2004) come the findings set out here.

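Tested at 5 concentrations; 48 h exposure; 96-well plates; endpoints linearly interpolated, else capped at highest concentration. GI50 marks 50% less growth.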 The source made the active and inactive calls. No stated cut-off is given here; in the data, active = GI50 up to about 1.1 µM and inactive = higher.

Some test systems named below: SNB-19; NCI-H522; SNB-75; OVCAR-3; DU-145; HOP-62; CAKI-1; LOX IMVI; HCT-15; SF-539; MDA-MB-231; CCRF-CEM; U-251; HOP-92; SW-620; Malme-3M; NCI/ADR-RES; SK-OV-3.
What all share (test): NCI-60 cell line screen, 48 h

For the compound `O=c1ccn(C2OC(CO)C(P(=O)(O)O)C2O)c(=O)[nH]1` (stereo unspecified), the GI50 in the assay on SNB-19, in the assay with NCI-H522, in the assay on SNB-75, with OVCAR-3, in the assay with DU-145 and in the assay on HOP-62 was > 100 µM (inactive) each time. Besides, the GI50 is > 100 µM (inactive) with CAKI-1; > 100 µM (inactive) in the assay on LOX IMVI; over 100 µM with HCT-15; > 100 µM (inactive) in the assay with SF-539; > 100 µM (inactive) in the assay with MDA-MB-231; > 100 µM (inactive) in the assay with CCRF-CEM. The GI50 with U-251, in the assay on HOP-92, with SW-620 and in the assay on Malme-3M was > 100 µM (inactive) in each case.

For `COc1ccc(/C=C2\C[C@H]3[C@@H]4CC=C5C[C@@H](OC(C)=O)CC[C@]5(C)[C@H]4CC[C@]3(C)C2=O)cc1OC`, the GI50 was 54.8 µM (inactive) in the assay with SNB-19; 23.5 µM (inactive) in the assay on NCI-H522; > 100 µM (inactive) in the assay with SNB-75; > 100 µM (inactive) with OVCAR-3; > 100 µM (inactive) with DU-145; 0.815 µM (active) with HOP-62. Besides, the GI50 was 22.5 µM (inactive) in the assay on CAKI-1; 80.9 µM (inactive) with NCI/ADR-RES; 42.9 µM (inactive) in the assay on LOX IMVI; 68.9 µM with HCT-15; > 100 µM (inactive) with SF-539; 37 µM (inactive) in the assay with CCRF-CEM. For the same compound, the GI50 with HOP-92 is 31.7 µM (inactive); in the assay on SW-620, > 100 µM (inactive); in the assay on Malme-3M it was 34.7 µM (inactive).

Consider `CSc1nc(-c2cc3c(c(SC)n2)CCCCC3)cc2c1CCCCC2`, for which the GI50 is > 100 µM (inactive) in the assay on SNB-19; 7.67 µM (inactive) in the assay on NCI-H522; 34.3 µM (inactive) in the assay on SNB-75; > 100 µM (inactive) in the assay with OVCAR-3; > 100 µM (inactive) in the assay on DU-145; 56.9 µM (inactive) in the assay on HOP-62. Further, the GI50 in the assay on CAKI-1 is > 100 µM (inactive); in the assay on NCI/ADR-RES it was > 100 µM (inactive); with LOX IMVI, > 100 µM (inactive); in the assay with SK-OV-3, 50.1 µM (inactive); in the assay on HCT-15 it was over 100 µM; in the assay with SF-539, > 100 µM (inactive). Besides, the GI50 in the assay on MDA-MB-231, with CCRF-CEM, with U-251 and with SW-620 was > 100 µM (inactive) in each case.

For `CN1CCc2c(sc3nc(Nc4ccccc4)n(N)c(=O)c23)C1`, the GI50 with SNB-19, in the assay on OVCAR-3, with DU-145, in the assay on HOP-62, with CAKI-1 and with NCI/ADR-RES was > 100 µM (inactive) throughout. The GI50 in the assay with HCT-15 is over 100 µM; with SF-539 it was > 100 µM (inactive); in the assay with MDA-MB-231, > 100 µM (inactive); in the assay on CCRF-CEM, 59.2 µM (inactive).

On to `O=C1CSC(c2c[nH]c3ccccc23)N1c1ccccc1[N+](=O)[O-]` (stereo unspecified), for which the GI50 with SNB-19, with NCI-H522, with OVCAR-3, in the assay on DU-145, in the assay on HOP-62 and in the assay with LOX IMVI was > 100 µM (inactive) in each case. In addition, the GI50 in the assay with SK-OV-3 was > 100 µM (inactive); in the assay with HCT-15 it was over 100 µM; in the assay with SF-539, > 100 µM (inactive); in the assay with MDA-MB-231, > 100 µM (inactive); in the assay with CCRF-CEM, > 100 µM (inactive); in the assay with U-251 it was > 100 µM (inactive). In addition, the GI50 in the assay on HOP-92 and in the assay with SW-620 was > 100 µM (inactive) in each case.
